Laboratory results taken from patent US12678510B2, “Drug loaded peptide brush polymers” (priority 2020, dated 2026).
Peptide text beside a SMILES is read from it. * marks the point of attachment. X1 = O=C1C2C3C=CC(C3)C2C(=O)N1CC(=O)*

System: pronase
Assay: Proteolytic degradation assay with pronase (RP-HPLC, MALDI-TOF-MS)
Type: in vitro ADME
Conditions: Streptomyces griseus, pronase (isolated proteolytic enzyme) in DPBS; pronase 0.35 U/mL in DPBS, 37° C., 50 μM peptide, after 3 hours; read-out: peptide cleavage
Experimental: The stability of drug delivery systems serves as a basis for enhancing half-life of therapeutic cargos during the course of delivery to targeted areas. To evaluate the stability of peptide brush polymers, positively charged poly(GGSGSGK) and its single peptide analogue GGSGSGK were treated with pronase, a robust proteolytic enzyme isolated from the extracellular fluid of Streptomyces griseus. RP-HPLC and MALDI-TOF mass spectroscopy were used to quantify the cleavage of peptides (FIGS. 30-33). As expected, the peptide underwent rapid degradation in the presence of pronase, resulting in approximately 75% peptide cleavage after 3 hours.
Monomer Nor-GGSGSGK and polymer Poly(GGSGSGK) (50 μM, with respect to peptide concentration) were treated with pronase (0.35 U/mL) in DPBS at 37° C. After treatment, the enzyme was heat denatured at 65° C. for 15 min.

NCCCC[C@H](NC(=O)CNC(=O)[C@H](CO)NC(=O)CNC(=O)[C@H](CO)NC(=O)CNC(=O)CN1C(=O)C2C3C=CC(C3)C2C1=O)C(N)=O (stereo partly shown) [GGSGSGK] (X1-GSGSGK-NH2; N-terminus assumed)
metabolised at 3 h, 50 μM: ~75%
